# From ChEMBL document CHEMBL4359904, “Structural tuning of acridones for developing anticancer agents targeting dihydrofolate reductase” (Bioorg Med Chem Lett, 2019)
# Calls of active or inactive are those of the source. The rule behind the calls is not given here.
# Legend:
# COLO 205 = assay: Growth inhibition of human COLO205 cells incubated for 48 hrs by sulforhodamine B assay; type: functional; conditions: COLO 205, 48 h
# NCI-H460 = assay: Growth inhibition of human NCI-H460 cells at 10^-5 M cells incubated for 48 hrs by sulforhodamine B assay relative to control; type: functional
# SK-MEL-28 = assay: Growth inhibition of human SK-MEL-28 cells incubated for 48 hrs by sulforhodamine B assay; type: functional; conditions: SK-MEL-28, 48 h
# BT-549 = assay: Growth inhibition of human BT549 cells incubated for 48 hrs by sulforhodamine B assay; type: functional; conditions: BT-549, 48 h
# OVCAR-5 = assay: Growth inhibition of human OVCAR5 cells at 10^-5 M incubated for 48 hrs by sulforhodamine B assay relative to control; type: functional; conditions: OVCAR-5, 48 h, read-out: GI
# MOLT-4 = assay: Growth inhibition of human MOLT4 cells incubated for 48 hrs by sulforhodamine B assay; type: functional; conditions: MOLT-4, 48 h
# MCF7 = assay: Growth inhibition of human MCF7 cells incubated for 48 hrs by sulforhodamine B assay; type: functional; conditions: MCF7, 48 h
# SF-295 = assay: Growth inhibition of human SF295 cells incubated for 48 hrs by sulforhodamine B assay; type: functional; conditions: SF-295, 48 h
# [1] = test system: Panel NCI-60 (60 carcinoma cell lines); assay: Therapeutic index, ratio of LC50 for human NCI60 cells to GI50 for human NCI60 cells measured after 48 hrs by sulforhodamine B assay; type: functional
# HOP-92 = assay: Growth inhibition of human HOP92 cells incubated for 48 hrs by sulforhodamine B assay; type: functional; conditions: HOP-92, 48 h
# NCI-H322M = assay: Growth inhibition of human NCI-H322M cells incubated for 48 hrs by sulforhodamine B assay; type: functional
# SN12C = assay: Growth inhibition of human SN12C cells incubated for 48 hrs by sulforhodamine B assay; type: functional
# UACC-257 = assay: Growth inhibition of human UACC257 cells incubated for 48 hrs by sulforhodamine B assay; type: functional; conditions: UACC-257, 48 h
# MDA-MB-468 = assay: Growth inhibition of human MDA-MB-468 cells incubated for 48 hrs by sulforhodamine B assay; type: functional; conditions: MDA-MB-468, 48 h
# UO-31 = assay: Growth inhibition of human UO31 cells incubated for 48 hrs by sulforhodamine B assay; type: functional; conditions: UO-31, 48 h
# OVCAR-4 = assay: Growth inhibition of human OVCAR4 cells incubated for 48 hrs by sulforhodamine B assay; type: functional; conditions: OVCAR-4, 48 h
# HCT-15 = assay: Growth inhibition of human HCT15 cells incubated for 48 hrs by sulforhodamine B assay; type: functional; conditions: HCT-15, 48 h
# C6 = assay: Cell cycle arrest in rat C6 cells assessed as decrease in cell population at G2/M phase measured after 24 hrs by propidium iodide staining based flow cytometry analysis; type: functional
# IGROV-1 = assay: Growth inhibition of human IGROV1 cells at 10^-5 M incubated for 48 hrs by sulforhodamine B assay relative to control; type: functional; conditions: IGROV-1, 48 h, read-out: GI
# Dihydrofolate reductase = molecular target: T1, Dihydrofolate reductase (Homo sapiens, UniProt P00374); assay: Inhibition of human dihydrofolate reductase assessed as inhibition constant by UV-Vis spectra based Benesi Hilebrand equation analysis
# T1 sequence (P00374 whole entry): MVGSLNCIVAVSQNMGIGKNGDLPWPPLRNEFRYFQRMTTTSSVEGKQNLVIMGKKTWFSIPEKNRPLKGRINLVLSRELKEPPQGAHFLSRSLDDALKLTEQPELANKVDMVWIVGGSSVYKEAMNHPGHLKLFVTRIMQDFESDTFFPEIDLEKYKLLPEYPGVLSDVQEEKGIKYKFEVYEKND
# A549 = assay: Growth inhibition of human A549/ATCC cells incubated for 48 hrs by sulforhodamine B assay; type: functional; conditions: A549, 48 h
# CAKI-1 = assay: Growth inhibition of human Caki1 cells incubated for 48 hrs by sulforhodamine B assay; type: functional; conditions: CAKI-1, 48 h
# HT-29 = assay: Growth inhibition of human HT-29 cells at 10^-5 M incubated for 48 hrs by sulforhodamine B assay relative to control; type: functional; conditions: HT-29, 48 h, read-out: GI
# SW-620 = assay: Growth inhibition of human SW620 cells incubated for 48 hrs by sulforhodamine B assay; type: functional; conditions: SW-620, 48 h
# ACHN = assay: Growth inhibition of human ACHN cells incubated for 48 hrs by sulforhodamine B assay; type: functional
# NCI-H522 = assay: Growth inhibition of human NCI-H522 cells incubated for 48 hrs by sulforhodamine B assay; type: functional; conditions: NCI-H522, 48 h
# OVCAR-8 = assay: Growth inhibition of human OVCAR8 cells incubated for 48 hrs by sulforhodamine B assay; type: functional; conditions: OVCAR-8, 48 h
# SNB-19 = assay: Growth inhibition of human SNB19 cells incubated for 48 hrs by sulforhodamine B assay; type: functional; conditions: SNB-19, 48 h
# MDA-MB-435 = assay: Growth inhibition of human MDA-MB-435 cells incubated for 48 hrs by sulforhodamine B assay; type: functional; conditions: MDA-MB-435, 48 h
# [2] = read-out: pLC50 (the source's name) (converted)
# [3] = read-out: LC50 (the source's name)
smiles,measurement,setting,value
O=c1c2ccccc2n(CC2CO2)c2ccccc12 (racemic),GI50,COLO 205,245 nM
same,CC50,COLO 205; [2],64.6 µM
same,TGI,COLO 205; read-out: pTGI (converted),1410 nM
same,growth inhibition (GI),NCI-H460,100%
same,GI50,SK-MEL-28,407 nM
same,CC50,SK-MEL-28; [2],11 µM
same,TGI,SK-MEL-28; read-out: pTGI (converted),1950 nM
same,GI50,BT-549,339 nM
same,CC50,BT-549; [2],66.1 µM
same,TGI,BT-549; read-out: pTGI (converted),3.16 µM
same,inhibition of growth at 10 µM,OVCAR-5,100%
same,GI50,MOLT-4; read-out: GI50,40 nM
same,CC50,MOLT-4; [3],> 100 µM
same,GI50,MOLT-4; read-out: pGI50 (converted),41.7 nM
same,CC50,MOLT-4; [2],> 100 µM
same,TGI,MOLT-4; read-out: pTGI (converted),316 nM
same,GI50,MCF7; read-out: GI50,50 nM
same,CC50,MCF7; [3],> 100 µM
same,GI50,MCF7; read-out: pGI50 (converted),55 nM
same,CC50,MCF7; [2],> 100 µM
same,TGI,MCF7; read-out: pTGI (converted),741 nM
same,GI50,SF-295,603 nM
same,CC50,SF-295; [2],> 100 µM
same,TGI,SF-295; read-out: pTGI (converted),4.27 µM
same,TI,[1],28
same,GI50,HOP-92,324 nM
same,CC50,HOP-92; [2],> 100 µM
same,TGI,HOP-92; read-out: pTGI (converted),3.89 µM
same,GI50,NCI-H322M,2000 nM
same,CC50,NCI-H322M; [2],> 100 µM
same,TGI,NCI-H322M; read-out: pTGI (converted),7.76 µM
same,GI50,SN12C,229 nM
same,CC50,SN12C; [2],6.17 µM
same,TGI,SN12C; read-out: pTGI (converted),1200 nM
same,GI50,UACC-257,457 nM
same,CC50,UACC-257; [2],> 100 µM
same,TGI,UACC-257; read-out: pTGI (converted),2820 nM
same,GI50,MDA-MB-468,1200 nM
same,CC50,MDA-MB-468; [2],7.94 µM
same,TGI,MDA-MB-468; read-out: pTGI (converted),3.09 µM
same,GI50,UO-31,178 nM
same,TGI,UO-31; read-out: pTGI (converted),407 nM
same,GI50,OVCAR-4,813 nM
same,CC50,OVCAR-4; [2],> 100 µM
same,TGI,OVCAR-4; read-out: pTGI (converted),3.98 µM
same,GI50,HCT-15,295 nM
same,CC50,HCT-15; [2],> 100 µM
same,TGI,HCT-15; read-out: pTGI (converted),4.57 µM
same,inhibition,C6,Active
same,inhibition of growth at 10 µM,IGROV-1,100%
same,Ki,Dihydrofolate reductase,1600 nM
same,GI50,A549,479 nM
same,CC50,A549; [2],> 100 µM
same,TGI,A549; read-out: pTGI (converted),3.8 µM
same,GI50,CAKI-1,174 nM
same,CC50,CAKI-1; [2],> 100 µM
same,TGI,CAKI-1; read-out: pTGI (converted),692 nM
same,inhibition of growth at 10 µM,HT-29,100%
same,GI50,SW-620; read-out: GI50,50 nM
same,CC50,SW-620; [3],> 0.05 µM
same,GI50,SW-620; read-out: pGI50 (converted),56.2 nM
same,CC50,SW-620; [2],> 100 µM
same,TGI,SW-620; read-out: pTGI (converted),1200 nM
same,GI50,ACHN; read-out: GI50,90 nM
same,CC50,ACHN; [3],790 nM
same,GI50,ACHN; read-out: pGI50 (converted),95.5 nM
same,CC50,ACHN; [2],794 nM
same,TGI,ACHN; read-out: pTGI (converted),282 nM
same,GI50,NCI-H522,372 nM
same,CC50,NCI-H522; [2],19.5 µM
same,TGI,NCI-H522; read-out: pTGI (converted),1320 nM
same,GI50,OVCAR-8,148 nM
same,CC50,OVCAR-8; [2],> 100 µM
same,TGI,OVCAR-8; read-out: pTGI (converted),1320 nM
same,GI50,SNB-19,490 nM
same,CC50,SNB-19; [2],> 100 µM
same,TGI,SNB-19; read-out: pTGI (converted),4.37 µM
same,GI50,MDA-MB-435,282 nM
same,CC50,MDA-MB-435; [2],4.68 µM
same,TGI,MDA-MB-435; read-out: pTGI (converted),1230 nM
